In patent US20220332839A1, “USE OF PRG4 TO TREAT CANCER” (Lubris LLC, priority 2019, published 2022):

Tests used:
Assay type in all cases: cell-based, human
[1] = tested on: CD44; assay: CD44 protein abundance in MDA-MB-231 cells (immunoblot, immunofluorescence); conditions: for protein abundance of CD44, immunoblotting: 100 pM TGFβ, 100 μg/mL rhPRG4 in the absence or presence of TGFβ; for CD44 immunostaining signal in organoids: 8 day-old organoids, absence or presence of TGFβ
Procedure: (§1) For immunofluorescence analysis of 3D-organoids, 600 MDA-MB-231 cells were grown within 80 μL of 50% Matrigel on top of 80 μL of 33% Matrigel coat in each well of ultra-low attachment 8-well chamber slides (Millipore-Sigma, USA). After DIC imaging on Day 8, the live multicellular structures were fixed with 4% formaldehyde, followed by permeabilization using 0.5% ice-cold Triton X-100 solution and blocking using 10% bovine serum albumin (BSA) in phosphate-buffered saline (PBS). For immunofluorescence analysis of monolayer cell culture, cells were seeded onto wells of a Falcon 8-well chamber culture slides (Corning Incorporated, USA), followed by fixing and permeabilization as described for the 3D cultures, and blocking with 5% BSA and 5% calf serum in PBS. Laminin and CD44 in cells were visualized by subjecting the three-dimensional or monolayer cultures to indirect immunofluorescence using a rat anti-laminin antibody (Abcam, Canada) and rat anti-CD44 antibody (Thermo Fisher, Canada) as the primary antibody, respectively, and Alexa 647-conjugated anti-rat IgG (ThermoFisher, Canada) as the secondary antibody. Actin in cells was visualized by incubating the fixed cultures with tetramethylrhodamine isothiocyanate (TRITC)-conjugated phalloidin (Millipore-Sigma, Canada). The DNA binding dye bisbenzimide (Hoechst 33342; Invitrogen, Canada) was used to detect nuclei. For CD44 knockdown analysis, the vector or CD44 shRNA transfected cells were identified by GFP signal. Immunofluorescence images were captured using an epifluorescence microscope with a 40× objective lens (Olympus Bx WI Confocal Microscope, Canada). Exposure times for laminin, actin, nuclei and GFP-specific signals were kept constant in each experiment. For each condition, 3 colonies/fields per experiment were captured, which were chosen as representative of the stained cells within each slide per experiments. Each experiment was repeated two independent times.
Cells were washed with PBS to remove all growth media. Appropriate volume of TNTE lysis buffer (50 mM Tris, 150 mM NaCl, 1 mM EDTA, 0.5% [v/v] Triton-X-100) containing protease and phosphatase inhibitors, was added to the cell monolayer and incubated at 4° C. under vigorous shaking for 20 minutes. Lysates were then collected in microcentrifuge tubes and centrifuged at 13,000 g for 10 minutes at 4° C. 5 μL of the lysate were subjected to protein concentration determination using Bradford-based protein assays (Bio-Rad Laboratories, Canada). Lysates were boiled for 3 minutes at 95° C. in dithiothreitol (DTT)-containing Laemmli sample buffer. […] Densitometric analyses were performed using Quantity One software (Bio-Rad Laboratories, Canada).

[2] = tested on: MDA-MB-231 cell-derived organoids; assay: Laminin/actin fluorescence staining of 3D organoids; conditions: 8 day old organoids; absence or presence of TGFβ
Procedure: as §1, with “For CD44 knockdown analysis, the vector or CD44 shRNA transfected cells were identified by GFP signal. Immunofluorescence images were captured using an epifluorescence microscope with a 40× objective lens (Olympus Bx WI Confocal Microscope, Canada). Exposure times for laminin, actin, nuclei and GFP-specific signals were kept constant in each experiment. For each condition, 3 colonies/fields per experiment were captured, which were chosen as representative of the stained cells within each slide per experiments. Each experiment was repeated two independent times.” left out

[3] = tested on: 3TP-Lux reporter; assay: 3TP-Lux luciferase reporter assay; conditions: 100 pM TGFβ
Procedure: MDA-MB-231 cells were seeded in 24-well plates at approximately 6×10^4 cells/well one day prior to transfections. Cells were co-transfected with the PAI1-promoter-driven firefly luciferase Reporter (3TP-Lux) and the CMV-Renilla luciferase control reporter constructs. 18 h post transfection, cells were serum-starved (0.2% FBS containing DMEM) for 4 h and then incubated in fresh low-serum (0.2% FBS containing DMEM) containing media in the absence or presence of 100 pM TGFβ, 100 μg/mL rhPRG4 alone or together and left overnight. Lysates were prepared and analyzed for luciferase activity using a commercially available dual luciferase assay kit (Promega, Canada). Arbitrary luciferase activity (relative light units) values were normalized to Renilla luciferase activity to account for variations in transfection efficiency. For each transfection, percent increase of PAI1 promoter driven luciferase reporter gene expression was also determined and expressed relative to luciferase activity of the respective basal condition lysates. Each experimental condition was carried out in triplicate.

[4] = tested on: PLC/PRF/5; assay: 72-hour proliferation assay, PLC/PRF/5; conditions: drug 2.5 μM
Procedure: Proliferation assay: In 100 μl complete medium, 3,000 cells were seeded in wells of a 96-well plate and left overnight to allow complete attachment. The next day (at time t=0 hours), the medium was removed and replaced with 100 μl of fresh medium in the presence/absence of Sorafenib (2.5 μM), Regorafenib (2.5 μM), rhPRG4 (12.5 to 100 μg/ml). Dimethyl sulfoxide (DMSO) and PBS+0.01% Tween-20 were used as vehicles of Sorafenib/Regorafenib, and rhPRG4, respectively. Cells in triplicate wells for each cell line were fixed at t=0 hours with 4% paraformaldehyde (PFA, pH 7.6, 10 min incubation), then stained with crystal violet (CV) and thoroughly washed to remove the excess staining. After 72 hours, the cells were fixed by adding 100 μl of 4% PFA directly to the medium (2% final PFA concentration, 20 min incubation), and processed for CV staining as previously described. Then, 100 or 200 μl of 1% sodium dodecyl-sulphate were added to the wells and the plates were left under shaking until complete CV release from stained cells. Optical density was at 595 nm wavelength measured using a plate reader.

Substance | protein abundance of CD44, immunoblotting [1] | CD44 immunostaining signal in organoids [1] | basal lamina (laminin) status and actin organization [2] | 3TP-Lux reporter activity, TGFβ alone [3] | rhPRG4-drug synergistic effect [4] | TGFβ-induced 3TP-Lux reporter activity ([3]; 100 μg/mL rhPRG4, overnight, 0.2% FBS)
TGFβ: recombinant human mature transforming growth factor beta (R&D systems) [reference compound] | promoted the protein abundance of CD44 | enhanced the CD44-immnostaining signal | disrupted basement membrane organization | significant induction of 3TP-Lux reporter activity |  | 
rhPRG4: full-length recombinant human PRG4 (lubricin) glycoprotein produced by CHO-M cells; residues 25-1404 of SEQ ID NO:1 | reduced the protein abundance of CD44 | reduced this signal | promoted cortical actin organization and solid laminin ring formation |  | did not respond at all | did not alter TGFβ-induced 3TP-Lux reporter activity
